According to patent publication US10544143B2, “4-azaindole compounds” (BRISTOL-MYERS SQUIBB COMPANY, priority 2017, dated 2020):
Like-named read-outs stand apart in the source and are kept apart here.

Legend:
human TLR7 = human TLR7 (Homo sapiens (Human), UniProt Q9NYK1); assay: TLR7 inhibition reporter assay (HEK-Blue SEAP); assay type: cell-based
human TLR9 = human TLR9 (Homo sapiens (Human), UniProt Q9NR96); assay: TLR9 inhibition reporter assay (HEK-Blue SEAP); settings: read-out: TLR9 IC50;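 also: SEAP driven by an IFN-β minimal promoter with NF-κB and AP-1 sites, read after 22 h, compounds dosed 0.05 nM–50 µM, inhibition scaled between agonist plus DMSO and reference-inhibitor wells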
human TLR9, sequence (Q9NR96 26-1032): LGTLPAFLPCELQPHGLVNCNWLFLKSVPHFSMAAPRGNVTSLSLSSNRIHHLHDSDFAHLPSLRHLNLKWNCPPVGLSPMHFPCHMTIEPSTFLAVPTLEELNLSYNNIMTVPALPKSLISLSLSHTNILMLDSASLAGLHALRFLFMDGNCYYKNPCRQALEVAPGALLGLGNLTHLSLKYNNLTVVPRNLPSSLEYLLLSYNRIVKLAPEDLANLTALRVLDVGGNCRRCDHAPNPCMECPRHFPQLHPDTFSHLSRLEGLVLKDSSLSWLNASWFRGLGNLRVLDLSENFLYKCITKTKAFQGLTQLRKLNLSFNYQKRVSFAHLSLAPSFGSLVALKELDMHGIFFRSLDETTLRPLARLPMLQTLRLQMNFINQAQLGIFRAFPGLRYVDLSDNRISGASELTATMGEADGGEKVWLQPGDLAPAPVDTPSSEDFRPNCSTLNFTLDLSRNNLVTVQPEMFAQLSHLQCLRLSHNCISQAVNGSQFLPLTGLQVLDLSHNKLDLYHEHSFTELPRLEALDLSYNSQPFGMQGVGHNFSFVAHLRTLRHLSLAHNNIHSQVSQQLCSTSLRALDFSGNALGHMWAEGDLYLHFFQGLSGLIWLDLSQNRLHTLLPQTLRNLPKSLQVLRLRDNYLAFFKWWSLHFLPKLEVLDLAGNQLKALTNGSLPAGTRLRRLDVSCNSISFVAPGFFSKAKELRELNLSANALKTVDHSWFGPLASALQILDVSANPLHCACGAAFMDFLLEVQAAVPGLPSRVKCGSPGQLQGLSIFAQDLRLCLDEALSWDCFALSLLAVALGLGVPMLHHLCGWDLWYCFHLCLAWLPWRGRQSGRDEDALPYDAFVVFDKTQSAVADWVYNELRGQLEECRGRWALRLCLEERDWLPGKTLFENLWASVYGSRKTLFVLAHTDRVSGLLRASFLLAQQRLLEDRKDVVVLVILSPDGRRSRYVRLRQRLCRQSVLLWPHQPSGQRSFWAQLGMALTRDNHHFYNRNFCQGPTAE

human TLR8 = human TLR8 (Homo sapiens (Human), UniProt Q9NR97); assay: TLR8 inhibition reporter assay (HEK-Blue SEAP); settings: read-out: TLR8 IC50;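 also: SEAP driven by IFN-β minimal promoter carrying NF-κB and AP-1 sites, compounds dosed 0.05 nM to 50 µM for 22 h, inhibition scaled between agonist-plus-DMSO and reference-inhibitor wells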
human TLR8, sequence (Q9NR97 27-1041): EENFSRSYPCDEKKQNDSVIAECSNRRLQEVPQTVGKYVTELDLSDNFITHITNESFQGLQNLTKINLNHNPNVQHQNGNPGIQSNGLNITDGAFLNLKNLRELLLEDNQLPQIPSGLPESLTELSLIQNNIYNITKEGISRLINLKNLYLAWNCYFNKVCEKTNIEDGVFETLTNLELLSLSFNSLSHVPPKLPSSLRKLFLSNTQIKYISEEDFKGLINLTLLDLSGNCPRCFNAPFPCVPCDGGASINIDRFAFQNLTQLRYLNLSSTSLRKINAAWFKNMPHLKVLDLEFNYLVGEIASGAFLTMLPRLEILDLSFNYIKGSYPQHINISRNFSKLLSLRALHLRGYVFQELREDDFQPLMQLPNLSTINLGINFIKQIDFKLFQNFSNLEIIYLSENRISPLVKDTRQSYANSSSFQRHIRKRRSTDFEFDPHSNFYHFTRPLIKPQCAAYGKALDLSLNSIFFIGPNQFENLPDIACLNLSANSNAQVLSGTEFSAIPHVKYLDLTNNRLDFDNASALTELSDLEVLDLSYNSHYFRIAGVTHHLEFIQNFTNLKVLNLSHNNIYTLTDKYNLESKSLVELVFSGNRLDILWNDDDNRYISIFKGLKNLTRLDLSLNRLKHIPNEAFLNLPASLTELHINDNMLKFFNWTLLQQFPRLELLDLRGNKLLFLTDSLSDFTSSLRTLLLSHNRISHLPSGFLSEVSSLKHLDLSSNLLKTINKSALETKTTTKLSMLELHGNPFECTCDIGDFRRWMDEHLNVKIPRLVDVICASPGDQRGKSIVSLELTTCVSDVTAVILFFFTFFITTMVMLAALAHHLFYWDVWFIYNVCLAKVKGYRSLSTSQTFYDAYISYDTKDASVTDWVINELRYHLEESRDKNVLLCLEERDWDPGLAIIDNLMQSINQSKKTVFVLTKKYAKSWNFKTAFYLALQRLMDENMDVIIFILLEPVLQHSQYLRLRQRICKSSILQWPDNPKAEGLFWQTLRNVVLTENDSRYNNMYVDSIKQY

[1] = HEK-Blue cells overexpressing human TLR7, gardiquimod 7.5 μM stimulation, SEAP reporter
[2] = HEK-Blue cells overexpressing human TLR9, ODN2006 5 nM stimulation, SEAP reporter
[3] = HEK-Blue cells overexpressing human TLR8, R848 15.9 μM stimulation, SEAP reporter
[4] = HEK-Blue cells overexpressing human TLR7, SEAP reporter, gardiquimod 7.5 μM
[5] = HEK-Blue cells overexpressing human TLR9, SEAP reporter, ODN2006 5 nM
[6] = HEK-Blue cells overexpressing human TLR8, SEAP reporter, R848 15.9 μM
[7] = HEK-Blue human TLR7 cells, gardiquimod 7.5 μM
[8] = HEK-Blue human TLR9 cells, ODN2006 5 nM
[9] = HEK-Blue human TLR8 cells, R848 15.9 μM

human TLR7, sequence (Q9NYK1 27-1049): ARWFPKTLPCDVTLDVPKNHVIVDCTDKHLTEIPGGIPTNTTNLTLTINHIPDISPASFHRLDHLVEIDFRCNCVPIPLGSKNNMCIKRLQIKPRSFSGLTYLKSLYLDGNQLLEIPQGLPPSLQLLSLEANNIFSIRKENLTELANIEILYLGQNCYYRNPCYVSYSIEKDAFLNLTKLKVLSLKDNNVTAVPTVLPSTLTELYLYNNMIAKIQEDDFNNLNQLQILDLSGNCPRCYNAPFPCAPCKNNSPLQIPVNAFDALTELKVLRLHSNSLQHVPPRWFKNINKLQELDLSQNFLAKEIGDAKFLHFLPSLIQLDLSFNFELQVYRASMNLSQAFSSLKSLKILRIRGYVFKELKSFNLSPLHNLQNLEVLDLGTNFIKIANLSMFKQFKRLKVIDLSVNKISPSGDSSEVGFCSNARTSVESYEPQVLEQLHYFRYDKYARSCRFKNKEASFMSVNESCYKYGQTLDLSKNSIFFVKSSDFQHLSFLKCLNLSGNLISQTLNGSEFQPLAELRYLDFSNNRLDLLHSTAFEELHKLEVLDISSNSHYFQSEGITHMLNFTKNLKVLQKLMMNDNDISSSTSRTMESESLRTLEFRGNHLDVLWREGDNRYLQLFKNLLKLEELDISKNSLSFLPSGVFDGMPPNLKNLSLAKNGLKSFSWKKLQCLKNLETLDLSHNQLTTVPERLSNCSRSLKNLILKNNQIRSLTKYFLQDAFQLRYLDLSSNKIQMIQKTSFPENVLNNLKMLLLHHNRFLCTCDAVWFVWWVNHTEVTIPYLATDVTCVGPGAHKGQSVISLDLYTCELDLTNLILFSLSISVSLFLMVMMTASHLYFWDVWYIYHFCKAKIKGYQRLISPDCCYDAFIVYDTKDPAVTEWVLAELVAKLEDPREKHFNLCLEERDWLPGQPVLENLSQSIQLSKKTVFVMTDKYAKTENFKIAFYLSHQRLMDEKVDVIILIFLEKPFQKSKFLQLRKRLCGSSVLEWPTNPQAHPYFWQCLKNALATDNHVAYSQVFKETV

COc1cc(-c2[nH]c3ccc(N4CCN(C5CCN(C(C)=O)CC5)CC4)nc3c2C(C)C)cn2ncnc12 [Example 121]
IC50 (human TLR7; [1]): 3.4 nM
IC50 (human TLR9; [2]): 6350 nM
IC50 (human TLR8; [3]): 0.8 nM

CCN(CCS(C)(=O)=O)C1CCC(c2nc3c(C(C)C)c(-c4cn5ncnc5c(C)c4C)[nH]c3cc2F)CC1 (stereo not drawn) [Example 510]
IC50 (human TLR7; [4]): 5.9 nM
IC50 (human TLR9; [5]): > 50000 nM
IC50 (human TLR8; [6]): 28 nM

Cc1cc(-c2[nH]c3ccc(C4CCNCC4)nc3c2C(C)C)cc(C)n1 [Example 512]
IC50 (human TLR7; [4]): 1.1 nM
IC50 (human TLR9; [5]): 304 nM
IC50 (human TLR8; [6]): 5.6 nM

Cc1c(-c2[nH]c3ccc(N4CCC(N(C)Cc5csnn5)CC4)nc3c2C(C)C)cn2ncnc2c1C [Example 77]
IC50 (human TLR7; [1]): 4.8 nM
IC50 (human TLR9; [2]): 11600 nM
IC50 (human TLR8; [3]): 2 nM

CC(C)c1c(-c2cc(CO)c3ncnn3c2)[nH]c2ccc(C3CCC(NCc4c[nH]nn4)CC3)nc12 (stereo not drawn) [Example 218]
IC50 (human TLR7; [1]): 8.5 nM
IC50 (human TLR9; [2]): 389 nM
IC50 (human TLR8; [3]): 20 nM

Cc1c(-c2[nH]c3ccc(N4CCN(C)CC4=O)nc3c2C(C)C)cn2ncnc2c1C [Example 142]
IC50 (human TLR7; [1]): 107 nM
IC50 (human TLR9; [2]): > 50000 nM
IC50 (human TLR8; [3]): 45 nM

CNC1CCC(c2ccc3[nH]c(-c4cn(CCO)c5ncccc45)c(C(C)C)c3n2)CC1 (stereo not drawn) [Example 295]
IC50 (human TLR7; [1]): 11 nM
IC50 (human TLR9; [2]): 883 nM
IC50 (human TLR8; [3]): 11 nM

CC(C)c1c(-c2cn(CCS(C)(=O)=O)c3ncccc23)[nH]c2ccc(C3CCC(NCC4(S(C)(=O)=O)CC4)CC3)nc12 (stereo not drawn) [Example 259]
IC50 (human TLR7; [1]): 19 nM
IC50 (human TLR9; [2]): 321 nM
IC50 (human TLR8; [3]): 7.1 nM

CNC(=O)CN(C)C1CCC(c2ccc3[nH]c(-c4cn5ncnc5c(C)c4C)c(C(C)C)c3n2)CC1 (stereo not drawn) [Example 400]
IC50 (human TLR7; [4]): 0.74 nM
IC50 (human TLR9; [5]): 1550 nM
IC50 (human TLR8; [6]): 2.9 nM

Cc1c(-c2[nH]c3ccc(N4[C@@H]5CC[C@H]4CN(C(=O)CN(C)C)C5)nc3c2C(C)C)cn2ncnc2c1C [Example 747]
IC50 (human TLR7; [4]): 0.59 nM
IC50 (human TLR9; [5]): 7380 nM
IC50 (human TLR8; [6]): 4.1 nM

Cc1c(-c2[nH]c3ccc(C4CC(N(C)CC(C)(C)O)C4)nc3c2C(C)C)cn2ncnc2c1C (stereo not drawn) [Example 641]
IC50 (human TLR7; [4]): 9.2 nM
IC50 (human TLR9; [5]): 3340 nM
IC50 (human TLR8; [6]): 3.5 nM

CNC(=O)CN1CCN(c2ccc3[nH]c(-c4cc(OC)c5ncnn5c4)c(C(C)C)c3n2)CC1 [Example 138]
IC50 (human TLR7; [1]): 11 nM
IC50 (human TLR9; [2]): > 50000 nM
IC50 (human TLR8; [3]): 4.6 nM

CC(C)c1c(-c2cn(C)c3ncccc23)[nH]c2ccc(CCC3CNC3)nc12 [Example 690]
IC50 (human TLR7; [4]): 15 nM
IC50 (human TLR9; [5]): 288 nM
IC50 (human TLR8; [6]): 31 nM

CCN(C1CCC(c2ccc3[nH]c(-c4cn5ncnc5c(C)c4C)c(C(C)C)c3n2)CC1)C1COC1 (stereo not drawn) [Example 1039]
IC50 (human TLR7; [7]): 7.2 nM
IC50 (human TLR9; [8]): 3070 nM
IC50 (human TLR8; [9]): 6.4 nM

COc1cc(-c2[nH]c3ccc(OCC4CCN(C)CC4)nc3c2C(C)C)cn2ncnc12 [Example 590, 6-(3-isopropyl-5-((1-methylpiperidin-4-yl)methoxy)-1H-pyrrolo[3,2-b]pyridin-2-yl)-8-methoxy-[1,2,4]triazolo[1,5-a]pyridine]
IC50 (human TLR7; [4]): 3 nM
IC50 (human TLR9; [5]): 3550 nM
IC50 (human TLR8; [6]): 4.7 nM

Cc1c(-c2[nH]c3ccc(N4C[C@H](C)NC[C@@H]4C)nc3c2C(C)C)cn2ncnc2c1C [Example 991]
IC50 (human TLR7; [7]): 0.27 nM
IC50 (human TLR9; [8]): 5990 nM
IC50 (human TLR8; [9]): 0.32 nM

Cc1c(-c2[nH]c3ccc(N4[C@H](C)CN(CC(N)=O)C[C@H]4C)nc3c2C(C)C)cn2ncnc2c1C [Example 866]
IC50 (human TLR7; [7]): 3.2 nM
IC50 (human TLR9; [8]): 47600 nM
IC50 (human TLR8; [9]): 74 nM

Cc1c(-c2[nH]c3ccc(C4CCC(NC5(C)COC5)CC4)nc3c2C(C)C)cn2ncnc2c1C (stereo not drawn) [Example 472]
IC50 (human TLR7; [4]): 0.34 nM
IC50 (human TLR9; [5]): 2510 nM
IC50 (human TLR8; [6]): 1.1 nM

COc1cc(-c2[nH]c3ccc(OC4CN(C)C4)nc3c2C(C)C)cn2ncnc12 [Example 596, 6-(3-isopropyl-5-((1-methylazetidin-3-yl)oxy)-1H-pyrrolo[3,2-b]pyridin-2-yl)-8-methoxy-[1,2,4]triazolo[1,5-a]pyridine]
IC50 (human TLR7; [4]): 13 nM
IC50 (human TLR9; [5]): 3200 nM
IC50 (human TLR8; [6]): 67 nM

Cc1c(-c2[nH]c3ccc(C4CCC(N(CCO)CC5(S(C)(=O)=O)CC5)CC4)nc3c2C(C)C)cn2ncnc2c1C (stereo not drawn) [Example 482]
IC50 (human TLR7; [4]): 96 nM
IC50 (human TLR9; [5]): > 50000 nM
IC50 (human TLR8; [6]): 238 nM

Cc1cc(-c2[nH]c3ccc(C4CN(C(=O)CN(C)C)CCO4)nc3c2C(C)C)cn(C)c1=O (stereo not drawn) [Example 677]
IC50 (human TLR7; [4]): 17 nM
IC50 (human TLR9; [5]): > 50000 nM
IC50 (human TLR8; [6]): 53 nM

Cc1c(-c2[nH]c3ccc(N4CCN(CCN(C)C)C(=O)C4)nc3c2C(C)C)cn2ncnc2c1C [Example 1032]
IC50 (human TLR7; [7]): 1210 nM
IC50 (human TLR9; [8]): 25400 nM
IC50 (human TLR8; [9]): 196 nM

Cc1c(-c2[nH]c3ccc(N4CCN(C(=O)CN5CCC(CO)CC5)CC4)nc3c2C(C)C)cn2ncnc2c1C [Example 971]
IC50 (human TLR7; [7]): 3 nM
IC50 (human TLR9; [8]): 9250 nM
IC50 (human TLR8; [9]): 0.85 nM

Cc1c(-c2[nH]c3ccc(N4CCN(CCC(N)=O)C[C@H]4C)nc3c2C(C)C)cn2ncnc2c1C [Example 807]
IC50 (human TLR7; [7]): 0.95 nM
IC50 (human TLR9; [8]): 16300 nM
IC50 (human TLR8; [9]): 1.3 nM

Cc1c(-c2[nH]c3ccc(C4CCC(N(C)CCO)CC4)nc3c2C(C)C)cn2ncnc2c1C (stereo not drawn) [Example 365]
IC50 (human TLR7; [1]): 4.2 nM
IC50 (human TLR9; [2]): 3200 nM
IC50 (human TLR8; [3]): 7.9 nM

CCN(C)CC(=O)N1C[C@H]2CC[C@@H](C1)N2c1ccc2[nH]c(-c3cn4ncnc4c(C)c3C)c(C(C)C)c2n1 [Example 922]
IC50 (human TLR7; [7]): 0.55 nM
IC50 (human TLR9; [8]): 9370 nM
IC50 (human TLR8; [9]): 2.1 nM

Cc1c(-c2[nH]c3ccc(C4CCC(NC5CC5)CC4)nc3c2C(C)C)cn2ncnc2c1C (stereo not drawn) [Example 426]
IC50 (human TLR7; [4]): 2.5 nM
IC50 (human TLR9; [5]): 1400 nM
IC50 (human TLR8; [6]): 2.6 nM

Cc1c(-c2[nH]c3ccc(N4CCN(C(=O)CN(C)C)C[C@@H]4C)nc3c2C(C)C)cn2ncnc2c1C [Example 801]
IC50 (human TLR7; [7]): 0.57 nM
IC50 (human TLR9; [8]): 11000 nM
IC50 (human TLR8; [9]): 0.56 nM

Cc1c(-c2[nH]c3ccc(N4[C@@H]5CC[C@H]4CN(CCS(C)(=O)=O)C5)nc3c2C(C)C)cn2ncnc2c1C [Example 748]
IC50 (human TLR7; [4]): 7.5 nM
IC50 (human TLR9; [5]): 37900 nM
IC50 (human TLR8; [6]): 15 nM

CC(C)c1c(-c2cn(C)c3ncccc23)[nH]c2ccc(C3CCC(NCC(=O)N(C)C)CC3)nc12 (stereo not drawn) [Example 182]
IC50 (human TLR7; [1]): 0.48 nM
IC50 (human TLR9; [2]): 301 nM
IC50 (human TLR8; [3]): 1.1 nM

Cc1cc(-c2[nH]c3ccc(C4CCNCC4)nc3c2C(C)C)cn2ncnc12 [Example 516]
IC50 (human TLR7; [4]): 0.22 nM
IC50 (human TLR9; [5]): 155 nM
IC50 (human TLR8; [6]): 1.9 nM

COc1cc(-c2[nH]c3ccc(C4CC(N(C)C(=O)CN(C)C)C4)nc3c2C(C)C)cn2ncnc12 (stereo not drawn) [Example 630]
IC50 (human TLR7; [4]): 1.9 nM
IC50 (human TLR9; [5]): 1280 nM
IC50 (human TLR8; [6]): 14 nM

COCCN1CC2(CC(c3ccc4[nH]c(-c5cn6ncnc6c(C)c5C)c(C(C)C)c4n3)C2)C1 [Example 1031]
IC50 (human TLR7; [7]): 18 nM
IC50 (human TLR9; [8]): 12700 nM
IC50 (human TLR8; [9]): 2 nM

Cc1c(-c2[nH]c3ccc(C4CCC(N(CCC#N)C5CC5)CC4)nc3c2C(C)C)cn2ncnc2c1C (stereo not drawn) [Example 428]
IC50 (human TLR7; [4]): 7.4 nM
IC50 (human TLR9; [5]): 9860 nM
IC50 (human TLR8; [6]): 6.4 nM

CCN(C)CC(=O)N1C[C@@H](C)N(c2ccc3[nH]c(-c4cn5ncnc5c(C)c4C)c(C(C)C)c3n2)C[C@@H]1C [Example 937]
IC50 (human TLR7; [7]): 0.52 nM
IC50 (human TLR9; [8]): 14200 nM
IC50 (human TLR8; [9]): 14 nM

COc1cc(-c2[nH]c3cc(C)c(C4CCN(CC(=O)N(C)C)CC4)nc3c2C(C)C)cn2ncnc12 [Example 584]
IC50 (human TLR7; [4]): 0.24 nM
IC50 (human TLR9; [5]): 2010 nM
IC50 (human TLR8; [6]): 29 nM
